In patent US10966426B2, “Herbicidal compositions comprising phenylpyrimidines” (BASF SE, priority 2016, dated 2021):

Columns and labels:
Format in all cases: in vivo
Setaria viridis = assay: greenhouse post-emergence treatment, SETVI; conditions: Setaria viridis, 480 h, 20 DAT, SETVI, Table X4, read-out: % activity, solo application
Procedure, shortened: (§1)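 Scoring ran on a 0-100 scale, 100 meaning no emergence or destroyed above-ground parts, over a 2-4 week period; Colby formula E=X+Y−(X·Y/100) gave expected mixture effects. Species grew separately in loamy sand (about 3.0% humus) at 10-25° C or 20-35° C, with water as solvent.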

Alopecurus myosuroides = assay: greenhouse post-emergence treatment, ALOMY; conditions: Alopecurus myosuroides, 480 h, read-out: % activity
Protocol: (§2) The culture containers used were plastic pots containing loamy sand with approximately 3.0% of humus as substrate. The seeds of the test plants were sown separately for each species.
To this end, the test plants were either sown directly, and grown in the same containers, or they were first grown separately as seedlings and transplanted into the test containers a few days prior to treatment.
(§3) Depending on the species, the plants were kept at 10-25° C. and 20-35° C., respectively.
(§4) The test period extended over 2 to 4 weeks. During this time, the plants were tended and their response to the individual treatments was evaluated.
(§5) Evaluation was carried out using a scale from 0 to 100. 100 means no emergence of the plants, or complete destruction of at least the above-ground parts, and 0 means no damage or normal course of growth. A good herbicidal activity is given at values of at least 70, and very good herbicidal activity is given at values of at least 85.
In the examples, the solvent used was water.
In the examples below, using the method of S. R. Colby (1967) “Calculating synergistic and antagonistic responses of herbicide combinations”, Weeds 15, p. […] E=X+Y−(X·Y/100) where X=effect in percent using herbicide A at an application rate a; • Y=effect in percent using herbicide B at application rate b; • E=expected effect (in %) of herbicide A+herbicide B at application rates a+b.

Bromus sterilis = assay: greenhouse post-emergence treatment, BROST; conditions: Bromus sterilis, 480 h, read-out: % activity
Procedure, shortened: as §1

Avena fatua = assay: greenhouse post-emergence treatment, AVEFA; conditions: Avena fatua, 480 h, 20 DAT, AVEFA, Table X4, read-out: % activity, solo application
Procedure, shortened: as §1

Apera spica-venti = assay: greenhouse post-emergence treatment, APESV; conditions: APESV, bromoxynil solo 250 gai/ha, 20 DAT
Protocol: as §2
(§6) For the post-emergence treatment, the test plants were grown to a plant height of from 3 to 15 cm, depending on the plant habit, and only then treated with the active compounds which had been suspended or emulsified in water. To this end, the test plants were either sown directly, and grown in the same containers, or they were first grown separately as seedlings and transplanted into the test containers a few days prior to treatment.
as §3, §4, §5
(§7) The respective stated components A and B, and if appropriate, C were formulated as a 10% by weight strength emulsion concentrate and, with addition of the amount of solvent system, introduced into the spray liquor used for applying the active compound. In the examples, the solvent used was water.
(§8) In the examples below, using the method of S. R. Colby (1967) “Calculating synergistic and antagonistic responses of herbicide combinations”, Weeds 15, p. 22ff., the value E, which is expected if the activity of the individual active compounds is only additive, was calculated. E=X+Y−(X·Y/100) where X=effect in percent using herbicide A at an application rate a; • Y=effect in percent using herbicide B at application rate b; • E=expected effect (in %) of herbicide A+herbicide B at application rates a+b.

Lolium multiflorum = assay: greenhouse post-emergence treatment, LOLMU; conditions: Lolium multiflorum, 480 h
Procedure, shortened: as §1

Digitaria sanguinalis = assay: greenhouse post-emergence treatment, DIGSA; conditions: Digitaria sanguinalis, 480 h
Procedure, shortened: as §1

Matricaria chamomilla = assay: greenhouse post-emergence treatment, MATCH; conditions: Matricaria chamomilla, 480 h, 31.25 gai/ha (EC 235 g/l), 20 DAT, MATCH, Table X4, read-out: % activity, solo application
Procedure, shortened: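 Each species was grown separately and treated once it reached 3 to 15 cm, using actives suspended or emulsified in water. Plants were kept at 10-25° C. or 20-35° C., depending on species. Damage is a 0–100 rating taken during 2 to 4 weeks.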

Stellaria media = assay: greenhouse post-emergence treatment, STEME; conditions: Stellaria media, 480 h, read-out: % activity
Protocol: as §2, §6, §3, §4, §5, §7, §8

Brachiaria decumbens = assay: greenhouse post-emergence treatment, BRADC; conditions: Urochloa decumbens, 480 h, read-out: % activity
Protocol: as §2, §6, §3, §4, §5, §7, §8

Galium aparine = assay: greenhouse post-emergence treatment, GALAP; conditions: Galium aparine, 480 h
Protocol: as §2, §6, §3, §4, §5, §7, §8

Papaver rhoeas = assay: greenhouse post-emergence treatment, PAPRH; conditions: Papaver rhoeas, 480 h, 31.25 gai/ha (EC 235 g/l), 20 DAT, PAPRH, Table X4, read-out: % activity, solo application
Protocol: as §2, §6, §3, §4, §5, §7, §8

Polygonum aviculare = assay: greenhouse post-emergence treatment, POLAV; conditions: Polygonum aviculare, 480 h, 20 DAT, POLAV, Table X4, read-out: % activity, solo application
Protocol: as §2, §6, §3, §4, §5, §7, §8

Poa annua = assay: greenhouse post-emergence treatment, POAAN; conditions: Poa annua, 480 h, read-out: % activity
Protocol: as §2, §6, §3, §4, §5, §7, §8

`N#Cc1cc(Br)c(O)c(Br)c1` [Bromoxynil, bromoxynil] was tested, and the inhibition at 31.25 g/ha (Setaria viridis; 31.25 gai/ha (EC 235 g/l)) was 0%, the inhibition at 250 g/ha (Setaria viridis; 250 gai/ha (EC 235 g/l)) was 0% and the pest or weed control at 31.25 g/ha (Alopecurus myosuroides) was 0%. For the same compound, the pest or weed control at 62.5 g/ha (Alopecurus myosuroides) was 0%, the pest or weed control at 125 g/ha (Alopecurus myosuroides) was 0% and the pest or weed control at 250 g/ha (Alopecurus myosuroides) was 10%. The pest or weed control at 31.25 g/ha (Bromus sterilis) was 0%, the pest or weed control at 62.5 g/ha (Bromus sterilis) was 0% and the pest or weed control at 125 g/ha (Bromus sterilis) was 0%. For the same compound, the pest or weed control at 250 g/ha (Bromus sterilis) was 0%, the inhibition at 31.25 g/ha (Avena fatua; 31.25 gai/ha (EC 235 g/l)) was 0% and the inhibition at 125 g/ha (Avena fatua; 125 gai/ha (EC 235 g/l)) was 0%. The “% activity” value (Apera spica-venti) was 0%, the inhibition at 31.25 g/ha (Lolium multiflorum; 31.25 gai/ha (EC 235 g/l), 20 DAT, LOLMU, Table X4, read-out: % activity, solo application) was 0% and the inhibition at 62.5 g/ha (Lolium multiflorum; 62.5 gai/ha (EC 235 g/l), 20 DAT, LOLMU, Table X4, read-out: % activity, solo application) was 0%. For the same compound, the inhibition at 125 g/ha (Lolium multiflorum; 125 gai/ha (EC 235 g/l), 20 DAT, LOLMU, Table X4, read-out: % activity, solo application) was 0%, the inhibition at 250 g/ha (Lolium multiflorum; 250 gai/ha (EC 235 g/l), 20 DAT, LOLMU, Table X4, read-out: % activity, solo application) was 0% and the pest or weed control at 31.25 g/ha (Lolium multiflorum; read-out: % activity) was 0%. For the same compound, the pest or weed control at 62.5 g/ha (Lolium multiflorum; read-out: % activity) was 0%, the pest or weed control at 125 g/ha (Lolium multiflorum; read-out: % activity) was 0% and the pest or weed control at 250 g/ha (Lolium multiflorum; read-out: % activity) was 0%. It also gave an inhibition at 31.25 g/ha (Digitaria sanguinalis; 31.25 gai/ha (EC 235 g/l), 20 DAT, DIGSA, Table X4, read-out: % activity, solo application) of 0%, an inhibition at 62.5 g/ha (Digitaria sanguinalis; 62.5 gai/ha (EC 235 g/l), 20 DAT, DIGSA, Table X4, read-out: % activity, solo application) of 0% and an inhibition at 125 g/ha (Digitaria sanguinalis; 125 gai/ha (EC 235 g/l), 20 DAT, DIGSA, Table X4, read-out: % activity, solo application) of 0%. For the same compound, the inhibition at 250 g/ha (Digitaria sanguinalis; 250 gai/ha (EC 235 g/l), 20 DAT, DIGSA, Table X4, read-out: % activity, solo application) was 0%, the pest or weed control at 31.25 g/ha (Digitaria sanguinalis; read-out: % activity) was 0% and the pest or weed control at 62.5 g/ha (Digitaria sanguinalis; read-out: % activity) was 0%. The pest or weed control at 125 g/ha (Digitaria sanguinalis; read-out: % activity) was 0%, the pest or weed control at 250 g/ha (Digitaria sanguinalis; read-out: % activity) was 0% and the inhibition at 31.25 g/ha (Matricaria chamomilla) was 55%. For the same compound, the pest or weed control at 31.25 g/ha (Stellaria media) was 30%, the pest or weed control at 62.5 g/ha (Stellaria media) was 50% and the pest or weed control at 125 g/ha (Stellaria media) was 60%. The pest or weed control at 31.25 g/ha (Brachiaria decumbens) was 0%, the pest or weed control at 62.5 g/ha (Brachiaria decumbens) was 0% and the pest or weed control at 125 g/ha (Brachiaria decumbens) was 10%. The inhibition at 62.5 g/ha (Galium aparine; 62.5 gai/ha (EC 235 g/l), 20 DAT, GALAP, Table X4, read-out: % activity, solo application) was 65%, the inhibition at 125 g/ha (Galium aparine; 125 gai/ha (EC 235 g/l), 20 DAT, GALAP, Table X4, read-out: % activity, solo application) was 80% and the pest or weed control at 31.25 g/ha (Galium aparine; read-out: % activity) was 65%. The pest or weed control at 62.5 g/ha (Galium aparine; read-out: % activity) was 65%, the pest or weed control at 125 g/ha (Galium aparine; read-out: % activity) was 80% and the inhibition at 31.25 g/ha (Papaver rhoeas) was 40%. For the same compound, the inhibition at 31.25 g/ha (Polygonum aviculare; 31.25 gai/ha (EC 235 g/l)) was 65%, the inhibition at 62.5 g/ha (Polygonum aviculare; 62.5 gai/ha (EC 235 g/l)) was 65% and the inhibition at 125 g/ha (Polygonum aviculare; 125 gai/ha (EC 235 g/l)) was 65%. For the same compound, the pest or weed control at 31.25 g/ha (Poa annua) was 0%, the pest or weed control at 62.5 g/ha (Poa annua) was 0% and the pest or weed control at 125 g/ha (Poa annua) was 0%. The pest or weed control at 250 g/ha (Poa annua) was 0%.
